Measurements from patent publication US5077293A, “1-indolyalkyl-4-(alkoxypyrimidinyl)piperazines” (Bristol-Myers Squibb Co., priority 1990, dated 1991).

test system: serotonin uptake; experiment: Inhibition of serotonin uptake (in vitro): inhibition of synaptosomal reuptake of tritiated serotonin; assay type: biochemical
Experimental: Determination of endogenous monoaminergic re-uptake inhibition values both for serotonin and norepinephrine was accomplished using test methods described by P. Skolnick, et al., Br. J. Pharmacology (1985), 86, pp. 637-644; with only minor modifications. In vitro IC50 (nM) test values were determined for representative compounds of Formula I based on their inhibition of synaptosomal reuptake of tritiated serotonin. Test data IC50 values lower than 500 nM are considered to reflect activity as an inhibitor of serotonin reuptake. Compounds with Ic50 values lower than 100 nM comprise preferred compounds.

Going from COc1cc(N2CCN(CCCc3c[nH]c4ccccc34)CC2)ncn1 [Example 37] to COc1cc(N2CCN(CCCc3c[nH]c4ccccc34)C(C)C2)ncn1 (stereo not shown) [Example 39], the IC50 rises from 5.85 nM to 9.3 nM (1.6-fold). The first is the more potent here.

Going from COc1cncnc1N1CCN(CCCc2c[nH]c3cc(F)c(F)cc23)C(C)C1 (stereo not shown) [Example 30] to COc1cncnc1N1CCN(CCCc2c[nH]c3ccc(F)cc23)C(C)C1 (stereo not shown) [Example 23, 3-[3-[4-(5-Methoxy-4-pyrimidinyl)-2-methyl-1-piperazinyl]propyl]-5-fluoroindole], the IC50 falls from 1.46 nM to 0.03 nM (49-fold).

Going from COc1cncnc1N1CCN(CCCc2c[nH]c3ccc(Cl)cc23)C(C)C1 (stereo not shown) [Example 32] to COc1cncnc1N1CCN(CCCc2c[nH]c3cc(F)ccc23)C(C)C1 (stereo not shown) [Example 25, 3-[3-[4-(5-Methoxy-4-pyrimidinyl)-2-methyl-1-pioerazinyl]-propyl]-6-fluoroindole], the IC50 rises from 2.1 nM to 3.7 nM (1.8-fold).

Going from COc1cncnc1N1CCN(CCc2c[nH]c3ccc(F)cc23)C(C)C1 (stereo not shown) [Example 35] to COc1cncnc1N1CCN(CCc2c[nH]c3ccc(F)cc23)CC1 [Example 31], the IC50 falls from 3.1 nM to 0.92 nM (3.4-fold). The second is the more potent here.

Going from COc1cncnc1N1CCN(CCCc2c[nH]c3ccc(Cl)cc23)CC1 [Example 29] to COc1cncnc1N1CCN(CCCc2c[nH]c3ccc(F)cc23)CC1 [Example 24, 3-[3-[4-(5-Methoxy-4-pyrimidinyl)-1-piperazinl]propyl]-5-fluoroindole], the IC50 falls from 2.9 nM to 0.3 nM (9.7-fold).

Going from CCOc1cncnc1N1CCN(CCCc2c[nH]c3ccccc23)C(C)C1 (stereo not shown) [Example 38] to CCC1CN(c2ncncc2OC)CCN1CCCc1c[nH]c2ccccc12 (stereo not shown) [Example 33], the IC50 falls from 13.4 nM to 2.64 nM (5.1-fold). The second is the more potent here.

COc1cncnc1N1CCN(CCCc2c[nH]c3ccccc23)CC1 [Example 28] and CCOc1cncnc1N1CCN(CCCc2c[nH]c3ccccc23)CC1 [Example 27] are within 1.5-fold of each other in IC50: 4.3 nM for the first, 6.35 nM for the second.

First: COc1cncnc1N1CCN(CCc2c[nH]c3cc(F)c(F)cc23)CC1 [Example 34]
Second: COc1cncnc1N1CCN(CCCc2cn(C)c3ccccc23)C(C)C1 (stereo not shown) [Example 36]
The IC50 of the first is 1.5-fold lower: 3.1 nM for the first, 4.7 nM for the second. The first is the more potent here.
